Measured values reported in BindingDB's records for PubMed 38457911 (China Pharmaceutical University).

Legend:
[1] = molecular target: E3 ubiquitin-protein ligase CBL; assay: Inhibition of c-Cbl (unknown origin) by HTRF method
[2] = molecular target: E3 ubiquitin-protein ligase CBL; assay: Inhibition of c-Cbl (unknown origin) by TR-FRET assay
[3] = molecular target: E3 ubiquitin-protein ligase CBL; assay: Inhibition of c-Cbl (unknown origin) expressed in Escherichia coli measured for 90 mins by HTRF method
[4] = molecular target: E3 ubiquitin-protein ligase CBL (Homo sapiens) (UniProt P22681); assay: Binding affinity to c-Cbl (unknown origin) assessed as dissociation constant by SPR assay

Compound	IC50 [1] [nM]	IC50 [3] [nM]	also measured
CC(C)[C@H]1CN(C)CCN1Cc1cc(C(=O)Nc2cccc(C3([C@@H](F)c4nncn4C)CC(F)(F)C3)c2)nc(C2CC2)c1	8		
Cn1cnnc1-c1cc(C#N)ccc1-c1cc(C2CC2)nc(N2Cc3c(cc(CNCC4(F)CCC4)cc3C(F)(F)F)C2=O)c1	< 200		
C[C@H]1CCCN(Cc2cc(C(F)(F)F)c3[nH]c(-c4cccc([C@]5(c6nncn6C)C[C@@H](C)C5)c4)nc3c2)C1			IC50 [2]: > 10000 nM
Cn1cnnc1[C@]1(c2cccc(NC(=O)c3cc(CN4CCC[C@H](C(F)F)C4)cn4ccnc34)c2)C[C@H](CC#N)C1		10	
CC(c1cc(C(=O)Nc2cccc([C@]3(c4nncn4C)C[C@@H](CC#N)C3)c2)nc2cc[nH]c12)N1CCC[C@H](C)C1 (stereo partly specified)		40	
COCC1(NCc2cc3c(c(C(F)(F)F)c2)CN(c2cccc([C@]4(c5nncn5C)C[C@H](OC)C4)c2)C3=O)CC1 [2-(3-((1r,3r)-3-methoxy-1-(4-methyl-4H-1,2,4-triazol-3-yl)cyclobutyl)phenyl)-6-(((1-(methoxymethyl)cyclopropyl)amino)methyl)-4-(trifluoromethyl)isoindolin-1-one]			Kd [4]: 210 nM
